According to patent US20240018163A1, “NEW THIAZOLOPYRIMIDINONE DERIVATIVES” (Hoffmann-La Roche Inc., priority 2021, published 2024):

What follows are molecules tested on mutant HTT protein (mHTT) (assay: Homogeneous Time Resolved Fluorescence (HTRF) assay for HTT lowering). Settings: reduction of mHTT in Huntington patient human cells (GENEAe020-A cell line), 48 hours incubation, mean from three replicates.
Assay type: cell-based
Description: Homogeneous Time Resolved Fluorescence for HTT lowering
The HTRF assay was adapted from Weiss et al. (Analytical Biochemistry Volume 395, Issue 1, 1 Dec. 2009, Pages 8-15 and Analytical Biochemistry Volume 410, 2011, Pages 304-306) to cells from GENEAe020-A cell line (https://hpscreg.eu/cell-line/GENEAe020-A).
Compounds were tested for the effect of mutant HTT levels in Huntington patient human cells (GENEAe020-A cell line) using Homogeneous Time Resolved Fluorescence (HTRF) directed towards mutant HTT protein (mHTT). The GENEAe020-A cell line was derived by Genea Biocells from human blastocysts of HD donors. After assessing viability, cells were plated into 384 well collagen coated plates in growth media. Once cells adhered, media was removed and test compounds dissolved in DMSO were diluted with buffer solution and added to the adherent cells. Controls included experiments with no cells, DMSO with no compound, and Hsp90 inhibitor control. Cells were incubated with compounds and controls for 48 hours. Then, the cells were lysed and transferred to an assay plate containing HTRF labeled monoclonal antibodies developed by Paul Patterson (Ko et al., Brain Research Bulletin, Volume 56, Numbers 3 and 4, 2001, Pages 319-329) which recognize specific areas of the HTT protein. The terbium labeled “donor” antibody (2B7) binds to the N-terminus of the HTT protein and the Alexa488 labeled “acceptor” antibody (MW1) is specific for the polyglutamine region of the protein. Binding of the acceptor labeled antibody is more efficient for the extended polyglutamine repeats of mutant HTT protein which translates into a signal boost which enables the specific measurement of mutant HTT protein level. The HTRF donor and acceptor detection reagents were incubated with the cell lysate and the ratio between the signals of the two fluorophores is indicative of the relative quantities of mHTT.

Row | SMILES | EC50 [nM]
1 | COc1cc(-c2cc(=O)n3cc([C@]4(F)CCNC[C@H]4F)sc3n2)nn2cc(C)nc12 (racemic) [Example 51, 7-(8-methoxy-2-methyl-imidazo[1,2-b]pyridazin-6-yl)-2-[rac-(3R,4S)-3,4-difluoro-4-piperidyl]thiazolo[3,2-a]pyrimidin-5-one] | 102
2 | COc1cc(-c2cc(=O)n3cc([C@]4(F)CCNC[C@@H]4F)sc3n2)nn2cc(C)nc12 (racemic) [Example 52, 7-(8-methoxy-2-methyl-imidazo[1,2-b]pyridazin-6-yl)-2-[rac-(3S,4S)-3,4-difluoro-4-piperidyl]thiazolo[3,2-a]pyrimidin-5-one] | 237
3 | Cc1cn2nc(-c3cc(=O)n4cc([C@]5(F)CCNC[C@H]5F)sc4n3)cc(C)c2n1 (racemic) [Example 53, 7-(2,8-dimethylimidazo[1,2-b]pyridazin-6-yl)-2-[rac-(3R,4S)-3,4-difluoro-4-piperidyl]thiazolo[3,2-a]pyrimidin-5-one] | 132
4 | Cc1cn2nc(-c3cc(=O)n4cc([C@]5(F)CCNC[C@@H]5F)sc4n3)cc(C)c2n1 (racemic) [Example 54, 7-(2,8-dimethylimidazo[1,2-b]pyridazin-6-yl)-2-[rac-(3S,4S)-3,4-difluoro-4-piperidyl]thiazolo[3,2-a]pyrimidin-5-one] | 556
5 | Cc1cn2nc(-c3cc(=O)n4cc(N5CCNCC5)sc4n3)cc(C)c2n1 [Example 1, 7-(2,8-dimethylimidazo[1,2-b]pyridazin-6-yl)-2-piperazin-1-yl-thiazolo[3,2-a]pyrimidin-5-one] | 46
6 | Cc1cn2nc(-c3cc(=O)n4cc(C5=CCNCC5)sc4n3)cc(C)c2n1 [Example 2, 7-(2,8-dimethylimidazo[1,2-b]pyridazin-6-yl)-2-(1,2,3,6-tetrahydropyridin-4-yl)thiazolo[3,2-a]pyrimidin-5-one] | 54
7 | Cc1cn2nc(-c3cc(=O)n4cc(N5CCNC(C)(C)C5)sc4n3)cc(C)c2n1 [Example 3, 7-(2,8-dimethylimidazo[1,2-b]pyridazin-6-yl)-2-(3,3-dimethylpiperazin-1-yl)thiazolo[3,2-a]pyrimidin-5-one] | 625
8 | Cc1cn2nc(-c3cc(=O)n4cc(N5CCNC6(CC6)C5)sc4n3)cc(C)c2n1 [Example 4, 2-(4,7-diazaspiro[2.5]octan-7-yl)-7-(2,8-dimethylimidazo[1,2-b]pyridazin-6-yl)thiazolo[3,2-a]pyrimidin-5-one] | 3530
9 | Cc1nc2c(F)cc(-c3cc(=O)n4cc(N5CCNCC5)sc4n3)cc2o1 [Example 5, 7-(4-fluoro-2-methyl-1,3-benzoxazol-6-yl)-2-piperazin-1-yl-thiazolo[3,2-a]pyrimidin-5-one] | 499
10 | Cc1cn2nc(-c3cc(=O)n4cc(N5CCN[C@@H](C)C5)sc4n3)cc(C)c2n1 [Example 6, 7-(2,8-dimethylimidazo[1,2-b]pyridazin-6-yl)-2-[(3S)-3-methylpiperazin-1-yl]thiazolo[3,2-a]pyrimidin-5-one] | 268
11 | Cc1cn2nc(-c3cc(=O)n4cc(N5CCN[C@H](C)C5)sc4n3)cc(C)c2n1 [Example 7, 7-(2,8-dimethylimidazo[1,2-b]pyridazin-6-yl)-2-[(3R)-3-methylpiperazin-1-yl]thiazolo[3,2-a]pyrimidin-5-one] | 52
12 | Cc1cn2nc(-c3cc(=O)n4cc(N5CC(C)NC(C)C5)sc4n3)cc(C)c2n1 (stereo not drawn) [Example 8, 7-(2,8-dimethylimidazo[1,2-b]pyridazin-6-yl)-2-(3,5-dimethylpiperazin-1-yl)thiazolo[3,2-a]pyrimidin-5-one] | 386
13 | Cc1cn2nc(-c3cc(=O)n4cc(N5CCN6CCC[C@H]6C5)sc4n3)cc(C)c2n1 [Example 9, 7-(2,8-dimethylimidazo[1,2-b]pyridazin-6-yl)-2-[(8aS)-3,4,6,7,8,8a-hexahydro-1H-pyrrolo[1,2-a]pyrazin-2-yl]thiazolo[3,2-a]pyrimidin-5-one] | 796
14 | Cc1cn2nc(-c3cc(=O)n4cc(N5CCNCC5)sc4n3)ccc2n1 [Example 10, 7-(2-methylimidazo[1,2-b]pyridazin-6-yl)-2-piperazin-1-yl-thiazolo[3,2-a]pyrimidin-5-one] | 283
15 | Cc1cn2nc(-c3cc(=O)n4cc(N5CCNCC5)sc4n3)cc(C(F)(F)F)c2n1 [Example 11, 7-[2-methyl-8-(trifluoromethyl)imidazo[1,2-b]pyridazin-6-yl]-2-piperazin-1-yl-thiazolo[3,2-a]pyrimidin-5-one] | 19
16 | CCc1cc(-c2cc(=O)n3cc(N4CCNCC4)sc3n2)nn2cc(C)nc12 [Example 12, 7-(8-ethyl-2-methyl-imidazo[1,2-b]pyridazin-6-yl)-2-piperazin-1-yl-thiazolo[3,2-a]pyrimidin-5-one] | 104
17 | COc1cc(-c2cc(=O)n3cc(N4CCNCC4)sc3n2)nn2cc(C)nc12 [Example 13, 7-(8-methoxy-2-methyl-imidazo[1,2-b]pyridazin-6-yl)-2-piperazin-1-yl-thiazolo[3,2-a]pyrimidin-5-one] | 118
18 | Cc1cn2nc(-c3cc(=O)n4cc(N5C6CCC5CNC6)sc4n3)cc(C)c2n1 [Example 14, 2-(3,8-diazabicyclo[3.2.1]octan-8-yl)-7-(2,8-dimethylimidazo[1,2-b]pyridazin-6-yl)thiazolo[3,2-a]pyrimidin-5-one] | 931
19 | Cc1cn2nc(-c3cc(=O)n4cc(N5CCN6CCC[C@@H]6C5)sc4n3)cc(C)c2n1 [Example 15, 7-(2,8-dimethylimidazo[1,2-b]pyridazin-6-yl)-2-[(8aR)-3,4,6,7,8,8a-hexahydro-1H-pyrrolo[1,2-a]pyrazin-2-yl]thiazolo[3,2-a]pyrimidin-5-one] | 123
20 | Cc1cn2nc(-c3cc(=O)n4cc(N5C[C@@H]6C[C@H]5CN6)sc4n3)cc(C)c2n1 [Example 16, 7-(2,8-dimethylimidazo[1,2-b]pyridazin-6-yl)-2-[(1S,4S)-2,5-diazabicyclo[2.2.1]heptan-2-yl]thiazolo[3,2-a]pyrimidin-5-one] | 9540
21 | Cc1cn2nc(-c3cc(=O)n4cc(N5CC6CNCC6C5)sc4n3)cc(C)c2n1 (stereo not drawn) [Example 17, 2-(2,3,3a,4,6,6a-hexahydro-1H-pyrrolo[3,4-c]pyrrol-5-yl)-7-(2,8-dimethylimidazo[1,2-b]pyridazin-6-yl)thiazolo[3,2-a]pyrimidin-5-one] | 421
22 | Cc1cn2nc(-c3cc(=O)n4cc(N5CCNCC5)sc4n3)cc(C3CC3)c2n1 [Example 18, 7-(8-cyclopropyl-2-methyl-imidazo[1,2-b]pyridazin-6-yl)-2-piperazin-1-yl-thiazolo[3,2-a]pyrimidin-5-one] | 469
23 | C=C(C)c1cc(-c2cc(=O)n3cc(N4CCNCC4)sc3n2)nn2cc(C)nc12 [Example 19, 7-(8-isopropenyl-2-methyl-imidazo[1,2-b]pyridazin-6-yl)-2-piperazin-1-yl-thiazolo[3,2-a]pyrimidin-5-one] | 3000
24 | Cc1nc2c(C)cc(-c3cc(=O)n4cc(N5CCNCC5)sc4n3)nc2o1 [Example 20, 7-(2,7-dimethyloxazolo[5,4-b]pyridin-5-yl)-2-piperazin-1-yl-thiazolo[3,2-a]pyrimidin-5-one] | 136
25 | Cc1cn2nc(-c3cc(=O)n4cc(N5CC[C@H](N6CCCC6)C5)sc4n3)cc(C)c2n1 [Example 21, 7-(2,8-dimethylimidazo[1,2-b]pyridazin-6-yl)-2-[(3S)-3-pyrrolidin-1-ylpyrrolidin-1-yl]thiazolo[3,2-a]pyrimidin-5-one] | 4200
26 | Cc1cn2nc(-c3cc(=O)n4cc(N5CCC6(CCNCC6)C5)sc4n3)cc(C)c2n1 [Example 22, 2-(2,8-diazaspiro[4.5]decan-2-yl)-7-(2,8-dimethylimidazo[1,2-b]pyridazin-6-yl)thiazolo[3,2-a]pyrimidin-5-one] | 1320
27 | Cc1cn2nc(-c3cc(=O)n4cc(N5CCNCC5)sc4n3)cc(C(C)C)c2n1 [Example 23, 7-(8-isopropyl-2-methyl-imidazo[1,2-b]pyridazin-6-yl)-2-piperazin-1-yl-thiazolo[3,2-a]pyrimidin-5-one] | 671
28 | Cc1cn2nc(-c3cc(=O)n4cc(C5CCNCC5)sc4n3)cc(C)c2n1 [Example 24, 7-(2,8-dimethylimidazo[1,2-b]pyridazin-6-yl)-2-(4-piperidyl)thiazolo[3,2-a]pyrimidin-5-one] | 28
29 | Cc1cn2nc(-c3cc(=O)n4cc(N5CCN6CCC[C@@H]6C5)sc4n3)cc(C(F)(F)F)c2n1 [Example 25, 7-[2-methyl-8-(trifluoromethyl)imidazo[1,2-b]pyridazin-6-yl]-2-[(8aR)-3,4,6,7,8,8a-hexahydro-1H-pyrrolo[1,2-a]pyrazin-2-yl]thiazolo[3,2-a]pyrimidin-5-one] | 454
30 | Cc1cn2nc(-c3cc(=O)n4cc(C5(F)CCNCC5)sc4n3)cc(C)c2n1 [Example 26, 7-(2,8-dimethylimidazo[1,2-b]pyridazin-6-yl)-2-(4-fluoro-4-piperidyl)thiazolo[3,2-a]pyrimidin-5-one] | 128
